Data as given in patent US20250241897A1, “COMPOSITION FOR ERADICATING HELICOBACTER PYLORI” (HK INNO.N CORPORATION, priority 2018, published 2025).

Assays:
[1] = Clinical study 1, Cohort 1: pharmacokinetic interaction of tegoprazan and amoxicillin/clarithromycin, multiple dose; format: in vivo, human
Procedure: To evaluate pharmacokinetic interaction of multiple-dose administration of single and combination of tegoprazan and amoxicillin/clarithromycin, a clinical study was designed in accordance with a randomized, open-label, and multiple-dose design.
A total of 24 subjects who had been determined eligible to participate in the study were randomly assigned in a 1:1 ratio to each one of the two groups. Each randomly-assigned group was administered with investigational medical products as arranged during each intervention period and underwent a clinical study as designed. In consideration of the half-life of each product, a 14-day wash-out period was given between the intervention periods.
A total of 24 subjects were divided into group 1 and group 2. During the first intervention period, subjects of group 1 (12 person) were repeatedly administered with 100 mg of tegoprazan twice a day for four days and administered once a day on the fifth day on which a pharmacokinetic clinical study was conducted. During the second intervention period after a 14-day wash-out period, they were repeatedly administered with 1000 mg of amoxicillin and 500 mg of clarithromycin twice a day for four days and administered once a day on the fifth day. During the third intervention period after a 14-day wash-out period, they were repeatedly administered with 100 mg of tegoprazan, 1000 mg of amoxicillin, and 500 mg of clarithromycin twice a day for six days and administered once a day on the seventh day. Following the last dose of each intervention period, pharmacokinetic blood samples were collected for 17 times over 72 hours in the first period, 14 times over 48 hours in the second period, and 19 times over 120 hours in the third period.
Drugs were administered to subjects of group 2 (12 person) in the reverse order to the way the study was conducted on group 1 in the first and second intervention periods and in the same order in the third intervention period. Pharmacokinetic blood samples were collected in the same manner as group 1.
The average plasma concentrations of tegoprazan, clarithromycin, and amoxicillin were measured and time-based plasma concentration and time-based drug concentration patterns were observed when tegoprazan was repeatedly administered alone, amoxicillin/clarithromycin were repeatedly administered and tegoprazan, amoxicillin, and clarithromycin were repeatedly administered in combination.
Pharmacokinetics of tegoprazan, amoxicillin, and clarithromycin were evaluated. Descriptive statistics of pharmacokinetic evaluation parameters were presented. Point estimates for geometric mean ratio between each group and 90% confidence interval were calculated from the log-converted primary pharmacokinetic evaluation parameters by using a linear mixed effect model.

[2] = test system: intragastric pH; experiment: Clinical study 1, Cohort 2: 24-hour intragastric pH measurement on repeated co-administration; format: in vivo, human; conditions: with amoxicillin/clarithromycin
Source text: To identify an effect of eradicating Helicobacter pylori in the present invention, a clinical study was designed in accordance with a randomized, open-label, active-controlled, parallel and multiple-dose design. A total of 221 patients were subjected to screening for this study. Out of them, 36 patients were registered thereto and the completed clinical results were obtained from 34 patients.
Particularly, the 36 patients above were divided into three patient groups (T1, T2 and R) and the clinical study was performed accordingly. […]
The T1 group was repeatedly given 50 mg of CJ-12420 and 1000 mg of amoxicillin/500 mg of clarithromycin twice a day for seven days; the T2 group was repeatedly given 100 mg of CJ-12420 and 1000 mg of amoxicillin/500 mg of clarithromycin twice a day for seven days; and the R group was repeatedly given 40 mg of pantoprazole and 1000 mg of amoxicillin/500 mg of clarithromycin twice a day for seven days. An intragastric pH was measured from all the subjects on Day 1 for 24 hours, and the intragastric pH was also measured for 24 hours on Day 1 and Day 7 of repeated administration. Also, a negative conversion rate was calculated upon a follow-up visit paid by subjects who were identified to be H. pylori positive on the UBT test during screening, and stability evaluation was performed according to a predetermined schedule. […]

[3] = tegoprazan 100 mg twice a day, combination with amoxicillin 1000 mg/clarithromycin 500 mg versus alone
[4] = clarithromycin 500 mg with amoxicillin 1000 mg twice a day, with versus without tegoprazan 100 mg

increase of AUC of tegoprazan when administered in combination with amoxicillin/clarithromycin [1, 3]	increase of Cmax of tegoprazan when administered in combination with amoxicillin/clarithromycin [1, 3]	AUC of clarithromycin when administered in combination with tegoprazan [1, 4]	Cmax of clarithromycin when administered in combination with tegoprazan [1, 4]	Compound	time to increase pH to 6 or more right after the administration [2]
2.70 times	2.24 times	–	–	Cc1nc2c(OC3CCOc4cc(F)cc(F)c43)cc(C(=O)N(C)C)cc2[nH]1 (centres unmarked) [Tegoprazan, 4-[(5,7-difluoro-3,4-dihydro-2H-chromene-4-yl)oxy]-N,N,2-trimethyl-1H-benzimidazole-6-carboxamide]	two
–	–	showed a tendency to increase	showed a tendency to increase	CC[C@H]1OC(=O)[C@H](C)[C@@H](O[C@H]2C[C@@](C)(OC)[C@@H](O)[C@H](C)O2)[C@H](C)[C@@H](O[C@@H]2O[C@H](C)C[C@H](N(C)C)[C@H]2O)[C@](C)(OC)C[C@@H](C)C(=O)[C@H](C)[C@@H](O)[C@]1(C)O [clarithromycin, (3R,4S,5S,6R,7R,9R,11R,12R,13S,14R)-6-[(2S,3R,4S,6R)-4-(dimethylamino)-3-hydroxy-6-methyloxane-2-yl]oxy-14-ethyl-12,13-dihydroxy-4-[(2R,4R,5S,6S)-5-hydroxy-4-methoxy-4,6-dimethyloxane-2-yl]oxy-7-methoxy-3,5,7,9,11,13-hexamethyl-oxacyclotetradecane-2,10-dione, reference compound]	–
